| Compound | melting point |
| --- | --- |
| C=CCC(O)(C(=O)N[C@H]1CN2CCC1CC2)c1cccs1 (stereo partly shown) | 54.4 to 58.3 °C |
| O=C(N[C@H]1CN2CCC1CC2)C(Cc1ccccc1)c1ccccc1 (stereo partly shown) | 142 °C |
| O=C(N[C@H]1CN2CCC1CC2)C(O)(c1ccccc1)C1CCCC1 (stereo partly shown) | 69.8 to 73.3 °C |
| CCCCC(C(=O)N[C@H]1CN2CCC1CC2)c1ccccc1 (stereo partly shown) | 136 °C |
| C[N+]12CCC(CC1)C(NC(=O)C1c3ccccc3Oc3ccccc31)C2.[Br-] (stereo not shown) | 318 °C |
| C[N+]12CCC(CC1)C(NC(=O)C1(O)c3ccccc3-c3ccccc31)C2.[Br-] (stereo not shown) | 197.5 to 203.6 °C |
| O=C(NC1C[N+]2(CCCOc3ccccc3)CCC1CC2)C1(O)c2ccccc2-c2ccccc21.[Br-] (stereo not shown) | 264 °C |
